Results on 16 compounds are retold here after PubChem BioAssay (NCI).

Holding throughout (experiment): inhibition of tumour cell growth, NCI panel, 48 h
For test [1], the system named is SK-MEL-28 melanoma.
In test [2] the test system is SNB-19 CNS.
Test [3] has as its system UO-31 renal.
Test [4] relates to PC-3 prostate.
In test [5] the test system is HOP-92 NSCLC.
The test system of test [6] is NCI/ADR-RES ovarian.
Test [7] relates to 786-0 renal.
Test [8] concerns EKVX NSCLC.
Test [9] concerns MCF7 breast.
For test [10], the system named is OVCAR-8 ovarian.
For test [11], the system named is MDA-N.

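Compound exposure: 48 hours, 5 concentrations, 96-well plates. Abbreviation: GI50, concentration required for 50% inhibition of growth. TGI marks complete inhibition of growth.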

For `CC1(C)CC[C@]2(C(=O)O)CC[C@]3(C)[C@H](C(=O)C=C4[C@@]5(C)C=C(C#N)C(=O)C(C)(C)[C@@H]5CC[C@]43C)[C@@H]2C1`, the TGI came out at 2.35 µM in [1]; 3.64 µM in test [2]; 6.29 µM in [3]; 1.97 µM in [4]; 8.16 µM in [5]; 4.68 µM in [6]. The TGI in test [7] came to 3.39 µM; in [8], 9.68 µM; in test [9], 5.14 µM; in test [10], 2.42 µM.
`O=C1C2C=CC(n3[nH]c(=O)n(Cc4ccccc4)c3=O)CC2C(=O)N1c1ccc(Br)cc1` (stereo not drawn): the TGI in [1], in test [2], in [3], in [5], in test [7] and in [8] was more than 100 µM throughout. The same compound displayed a TGI in [10] of more than 100 µM.
Consider `O=C(N=Nc1ccccc1Cl)NNc1ccccc1Cl`, for which the TGI in [1] was more than 100 µM; in [2] it was more than 100 µM; in test [3], more than 100 µM; in [4] it was more than 100 µM; in [11], more than 100 µM; in test [7], 34.4 µM. In [10], this compound registered a TGI of 81.7 µM.
For `CCOC(=O)C1=C(O)c2ccc(C)cc2C(=O)C1=O`, the TGI in [1], in test [2], in [3], in test [5], in test [7] and in test [8] was more than 100 µM throughout. In test [10], this compound registered a TGI of more than 100 µM.
As to `CC1(C)O[C@@H](C[C@]2(C#N)C[C@H](CCl)OC(C)(C)O2)C[C@@H](C#N)O1`, the TGI in [1], in test [2], in test [3], in test [5], in [7] and in test [8] was more than 100 µM each time. For the same compound, in test [10], the TGI is more than 100 µM.
In the case of `CCCCN(C)/N=N/c1nc[nH]c1C(N)=O`, the TGI in [1], in test [2], in [3], in test [5], in test [6] and in [8] was more than 100 µM in each case. Also, the TGI in test [9] and in test [10] was more than 100 µM in each case.
In the case of `[N-]=[N+]=NCC(O)Cn1cnc2c(NC(=O)c3ccccc3)ncnc21` (stereo not drawn), the TGI in test [1], in test [2], in test [3], in [5], in [7] and in test [8] was more than 100 µM each time. The same compound had a TGI in test [10] of more than 100 µM.
Regarding `S=C1SC(=Nc2ccccc2)C(=Nc2ccccc2)N1c1ccc2ccccc2c1`, the TGI in test [1], in test [2], in test [3], in [4], in test [11] and in test [6] was more than 100 µM each time. Also, the TGI in [9] and in test [10] was more than 100 µM each time.
Consider `O=c1[nH]nc(Cc2ccc(Cl)cc2)n1/N=C/c1ccc([N+](=O)[O-])o1`, for which the TGI was more than 21.9 µM in test [1]; 33.3 µM in test [2]; more than 24 µM in test [3]; more than 75.1 µM in [4]; more than 46.8 µM in test [5]; more than 35.5 µM in [6]. In addition, the TGI was 11.1 µM in test [7], 13.8 µM in test [8], more than 36.8 µM in test [9] and more than 32.2 µM in test [10].
For `COc1ccc(Oc2ccccc2N)cc1`, the TGI was 95.1 µM in test [1]; more than 100 µM in [3]; more than 100 µM in test [5]; more than 100 µM in test [8]; more than 100 µM in test [10].
Take `CSc1cnc2ccccc2c1Sc1c[nH]c2ccccc2c1=O`: the TGI was 43.5 µM in [1]; 65.4 µM in [2]; 45.1 µM in test [3]; 29.7 µM in test [5]; 34.8 µM in test [7]; more than 45.8 µM in test [8]. In [10], the TGI came out at 34.4 µM.
Regarding `CCC(=O)OC1CCn2c1nc1c2C(=O)C(C)=C(NC(C)=O)C1=N` (stereo not drawn), the TGI in test [1] turned out to be 3.5 µM; in [2] it was 16.8 µM; in test [3], 4.64 µM; in test [5], 5.15 µM; in test [7], 6.06 µM; in [8] it was 5.48 µM. This compound came in with a TGI in [10] of 2.89 µM.
In the case of `COC(=O)Cn1cnc2c(Cl)nc(Nc3ccccc3)nc21`, the TGI in test [1], in [2], in test [4], in test [11], in [6] and in test [7] was more than 100 µM throughout. For the same compound, the results for the TGI in [8], in test [9] and in test [10] were 88 µM, more than 100 µM and 66.7 µM, respectively.
Regarding `COc1cc2nc(-c3cccs3)nc(Nc3cccc(Cl)c3)c2cc1OC`, the TGI in [1] is more than 100 µM; in test [2] it was more than 100 µM; in test [3], more than 100 µM; in test [4], 56.8 µM; in test [5], more than 100 µM; in test [6], more than 100 µM. The TGI in [7], in test [8], in [9] and in test [10] was more than 100 µM in each case.
Consider `COc1cc(N(CCC#N)CCC#N)ccc1/C=N\NC(=O)c1ccc(C)cc1`, for which the TGI in test [1] is more than 100 µM; in [2] it was more than 100 µM; in test [4], 31.1 µM; in [5], more than 100 µM; in [11], more than 100 µM; in test [6], more than 100 µM. The TGI in test [7], in [8] and in test [10] was more than 100 µM each time.
`COc1ccc(C(=O)/C=C/c2cc(-c3cc(OC)c(OC)c(OC)c3)n[nH]2)cc1`: the GI50 in test [1] is 2.12 µM; in test [3] it was 1.45 µM; in [6] it was 2.76 µM; in [9] it was 1.15 µM; in test [10] it was 2.43 µM. For the same compound, the TGI in test [1] stood at 4.42 µM; in [3], 2.84 µM; in test [6], 9.85 µM; in test [9], 2.96 µM; in test [10], 8.26 µM.
